Laboratory results taken from patent US10981894B2, “Melanocortin subtype-2 receptor (MC2R) antagonists and uses thereof” (Crinetics Pharmaceuticals, Inc., priority 2018, dated 2021).

Molecular target: hMC2 receptor (Homo sapiens, UniProt Q01718)
Assay: hMC2 membrane binding assay ([125I]ACTH (1-39) Tyr23, SPA)
Parameters: scale not given here
Conditions: crude hMC2R membranes from CRE-bla-CHO-K1 cells expressing hMC2 receptor and hMRAP; [125I]ACTH (1-39) Tyr23 0.2 nM; 1.5 hours at room temperature; read-out: MC2R binding potency
Procedure: Crude membrane fractions are prepared from CRE-bla-CHO-K1 cells stably expressing hMC2 receptor and hMRAP accessory protein (Thermo Fisher). The cells are grown to 85-100% confluence on standard tissue culture dishes in GlutaMax DMEM growth media (Gibco) with following additives: 10% dialyzed FBS (Gemini), 0.1 mM NEAA (Gibco), 25 mM HEPES (Gibco), 5 μg/mL blasticidin (Goldbio), 100 μg/mL zeocin (Invitrogen), 600 μg/mL hygromycin (Goldbio). To prepare membranes, cells are scraped and collected in 1× Dulbecco's phosphate buffered saline (Corning) and then pelleted at 1000 RPM's. The cell pellet is reconstituted in membrane preparation buffer (20 mM HEPES, 6 mM MgCl2 and 1 mM EGTA, protease inhibitor tablets (Pierce) adjusted to pH 7.4), homogenized using a dounce homogenizer, and the resulting membrane fraction is pelleted by centrifugation at 12,000 RPM's. The membrane pellet is resuspended in membrane preparation buffer, snap freezed and stored at −80° C. for later use.
Binding Assay for hMC2 Antagonists Protocol:
The hMC2 membrane binding assay utilizes the following components: radiolabel [^125I]ACTH (1-39) Tyr23 (PerkinElmer), wheatgerm agglutinin coated PVT SPA beads (PerkinElmer), crude hMC2R membranes, and compounds. Briefly hMC2R membranes are incubated with SPA beads in binding assay buffer (50 mM HEPES, 5 mM MgCl2, 1 mM CaCl2, 0.2% BSA, protease inhibitor tablets (Pierce) adjusted to pH7.4) prior to assay initiation. A dose response of compound (the final concentration of compound are typically 0-10,000 nM), SPA membranes, and [^125I]ACTH (1-39) Tyr23 at a final concentration of 0.2 nM is plated in a 96-well assay plate and allowed to incubate 1.5 hours at room temperature. Assay plates are read using a Top Count NXT and Ki values for compounds are determined using a GraphPad Prism 6 non-linear regression analysis.

Sequence of hMC2 receptor (Q01718 whole entry): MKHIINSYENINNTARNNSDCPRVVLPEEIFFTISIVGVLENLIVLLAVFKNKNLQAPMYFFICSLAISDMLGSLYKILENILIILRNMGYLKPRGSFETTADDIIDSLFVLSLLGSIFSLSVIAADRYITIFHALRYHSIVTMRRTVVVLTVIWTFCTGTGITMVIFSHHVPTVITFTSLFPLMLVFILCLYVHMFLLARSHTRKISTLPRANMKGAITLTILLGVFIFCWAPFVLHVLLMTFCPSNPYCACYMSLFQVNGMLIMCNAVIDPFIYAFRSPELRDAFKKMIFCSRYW
Sequence of hMC2 receptor (Q8TCY5 whole entry partner): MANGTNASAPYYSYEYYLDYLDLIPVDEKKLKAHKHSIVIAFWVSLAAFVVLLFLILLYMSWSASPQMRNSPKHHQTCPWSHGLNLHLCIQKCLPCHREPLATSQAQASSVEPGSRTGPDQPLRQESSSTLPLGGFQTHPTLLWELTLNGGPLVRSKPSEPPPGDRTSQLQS

CCOc1ncccc1-c1ccc(N2CCN(C(=O)c3ccc(Cl)cc3N3CCC(N)CC3)C[C@H]2CC)c(C(=O)NCCN)c1 [Compound 1-52, N-(2-aminoethyl)-2-[(2R)-4-[2-(4-aminopiperidin-1-yl)-4-chlorobenzoyl]-2-ethylpiperazin-1-yl]-5-(2-ethoxypyridin-3-yl)benzamide] was tested, and the Ki was under 10 nM.
CCOc1ncccc1-c1ccc(N2CCN(C(=O)c3ccc(Cl)cc3OC)C[C@H]2CC)c(C(=O)NCCN)c1 [Compound 1-54, N-(2-aminoethyl)-2-[(2R)-4-(4-chloro-2-methoxybenzoyl)-2-ethylpiperazin-1-yl]-5-(2-ethoxypyridin-3-yl)benzamide] gave a Ki of under 10 nM.
CCOc1ncccc1-c1ccc(N2CCN(C(=O)c3ccc(Cl)cc3N3CC[C@H](N)C3)C[C@H]2CC)c(C(=O)NCCN)c1 [Compound 1-57, N-(2-aminoethyl)-2-[(2R)-4-{2-[(3S)-3-aminopyrrolidin-1-yl]-4-chlorobenzoyl}-2-ethylpiperazin-1-yl]-5-(2-ethoxypyridin-3-yl)benzamide] was tested, and the Ki was under 10 nM.
With CCOc1ncccc1-c1ccc(N2CCN(C(=O)c3ccc(F)cc3C(F)(F)F)C[C@H]2CC)c(C(=O)NCCN)c1 [Compound 1-58, N-(2-aminoethyl)-5-(2-ethoxypyridin-3-yl)-2-[(2R)-2-ethyl-4-[4-fluoro-2-(trifluoromethyl)benzoyl]piperazin-1-yl]benzamide] the Ki was under 10 nM.
In the case of CCOc1ncccc1-c1ccc(N2CCN(C(=O)c3ccc(C)cc3C(F)(F)F)C[C@H]2CC)c(C(=O)NCCN)c1 [Compound 1-59, N-(2-aminoethyl)-5-(2-ethoxypyridin-3-yl)-2-[(2R)-2-ethyl-4-[4-methyl-2-(trifluoromethyl)benzoyl]piperazin-1-yl]benzamide], the Ki is reported as under 10 nM.
CCOc1ncccc1-c1ccc(N2CCN(C(=O)c3ccc(C)cc3C)C[C@H]2CC)c(C(=O)NCCN)c1 [Compound 1-60, N-(2-aminoethyl)-2-[(2R)-4-(2,4-dimethylbenzoyl)-2-ethylpiperazin-1-yl]-5-(2-ethoxypyridin-3-yl)benzamide] showed a Ki of under 10 nM.
Molecule CCOc1ncccc1-c1ccc(N2CCN(C(=O)c3ccccc3C(F)(F)F)C[C@H]2CC)c(C(=O)NCCN)c1 [Compound 1-62, N-(2-aminoethyl)-5-(2-ethoxypyridin-3-yl)-2-[(2R)-2-ethyl-4-[2-(trifluoromethyl)benzoyl]piperazin-1-yl]benzamide] has a Ki of under 10 nM.
CCOc1ncccc1-c1ccc(N2CCN(C(=O)c3ccc(C)cc3N3CC[C@H](NC)C3)C[C@H]2CC)c(C(=O)NCCN)c1 [Compound 1-67, N-(2-aminoethyl)-5-(2-ethoxypyridin-3-yl)-2-[(2R)-2-ethyl-4-{4-methyl-2-[(3S)-3-(methylamino)pyrrolidin-1-yl]benzoyl}piperazin-1-yl]benzamide] gave a Ki of under 10 nM.
For CCOc1ncccc1-c1ccc(N2CCN(C(=O)c3ccc(C)cc3N3CC[C@H](N(C)C)C3)C[C@H]2CC)c(C(=O)NCCN)c1 [Compound 1-68, N-(2-aminoethyl)-2-[(2R)-4-{2-[(3S)-3-(dimethylamino)pyrrolidin-1-yl]-4-methylbenzoyl}-2-ethylpiperazin-1-yl]-5-(2-ethoxypyridin-3-yl)benzamide], the Ki was under 10 nM.
With CCOc1ncccc1-c1ccc(N2CCN(C(=O)c3ccc(Cl)cc3C(F)(F)F)C[C@H]2CC)c(C(=O)NCCN)c1F [Compound 1-69, N-(2-aminoethyl)-6-[(2R)-4-[4-chloro-2-(trifluoromethyl)benzoyl]-2-ethylpiperazin-1-yl]-3-(2-ethoxypyridin-3-yl)-2-fluorobenzamide] the Ki was under 10 nM.
CC[C@@H]1CN(C(=O)c2ccc(Cl)cc2C(F)(F)F)CCN1c1ccc(-c2cccnc2OC)cc1C(=O)NCCN [Compound 1-71, N-(2-aminoethyl)-2-[(2R)-4-[4-chloro-2-(trifluoromethyl)benzoyl]-2-ethylpiperazin-1-yl]-5-(2-methoxypyridin-3-yl)benzamide] showed a Ki of under 10 nM.
Work on CCOc1ncccc1-c1ccc(N2CCN(C(=O)c3ccc(Cl)cc3C(F)(F)F)C[C@H]2CC)c(C(=O)N[C@@H]2CCNC2)c1F [Compound 1-72, 6-[(2R)-4-[4-chloro-2-(trifluoromethyl)benzoyl]-2-ethylpiperazin-1-yl]-3-(2-ethoxypyridin-3-yl)-2-fluoro-N-[(3R)-pyrrolidin-3-yl]benzamide] yielded a Ki of under 10 nM.
For CCOc1ncccc1-c1ccc(N2CCN(C(=O)c3ccc(F)cc3Cl)C[C@H]2CC)c(C(=O)N[C@@H]2CCNC2)c1F [Compound 1-73, 6-[(2R)-4-(2-chloro-4-fluorobenzoyl)-2-ethylpiperazin-1-yl]-3-(2-ethoxypyridin-3-yl)-2-fluoro-N-[(3R)-pyrrolidin-3-yl]benzamide], the Ki was under 10 nM.
CCOc1ncccc1-c1ccc(N2CCN(C(=O)c3ccc(C(F)(F)F)nc3N(C)C)C[C@H]2CC)c(C(=O)NCCN)c1 [Compound 1-76, N-(2-aminoethyl)-2-[(2R)-4-[2-(dimethylamino)-6-(trifluoromethyl)pyridine-3-carbonyl]-2-ethylpiperazin-1-yl]-5-(2-ethoxypyridin-3-yl)benzamide] showed a Ki of under 10 nM.
CCOc1ncccc1-c1ccc(N2CCN(C(=O)c3ccc(F)cc3Cl)C[C@H]2CC)c(C(=O)N[C@@H]2CCNC2)c1 [Compound 1-82, 2-[(2R)-4-(2-chloro-4-fluorobenzoyl)-2-ethylpiperazin-1-yl]-5-(2-ethoxypyridin-3-yl)-N-[(3R)-pyrrolidin-3-yl]benzamide] was tested, and the Ki was under 10 nM.
In the case of CCOc1ncccc1-c1ccc(N2CCN(C(=O)c3ccc(Cl)cc3C(F)(F)F)C[C@H]2CC)c(C(=O)NCCc2cnc[nH]2)c1 [Compound 1-84, 2-[(2R)-4-[4-chloro-2-(trifluoromethyl)benzoyl]-2-ethylpiperazin-1-yl]-5-(2-ethoxypyridin-3-yl)-N-[2-(1H-imidazol-5-yl)ethyl]benzamide], the Ki is reported as under 10 nM.
Molecule CCOc1ncccc1-c1ccc(N2CCN(C(=O)c3ccc(Cl)cc3C)C[C@H]2CC)c(C(=O)NCCN)c1 [Compound 1-87, N-(2-aminoethyl)-2-[(2R)-4-(4-chloro-2-methylbenzoyl)-2-ethylpiperazin-1-yl]-5-(2-ethoxypyridin-3-yl)benzamide] has a Ki of under 10 nM.
Molecule CCOc1ncccc1-c1ccc(N2CCN(C(=O)c3ccc(C4CC4)cc3C)C[C@H]2CC)c(C(=O)NCCN)c1 [Compound 1-88, N-(2-aminoethyl)-2-[(2R)-4-(4-cyclopropyl-2-methylbenzoyl)-2-ethylpiperazin-1-yl]-5-(2-ethoxypyridin-3-yl)benzamide] has a Ki of under 10 nM.
CCOc1ncccc1-c1ccc(N2CCN(C(=O)c3ccc(Cl)cc3N3CCNCC3)C[C@H]2CC)c(C(=O)N[C@@H]2CCNC2)c1 [Compound 1-90, 2-[(2R)-4-[4-chloro-2-(piperazin-1-yl)benzoyl]-2-ethylpiperazin-1-yl]-5-(2-ethoxypyridin-3-yl)-N-[(3R)-pyrrolidin-3-yl]benzamide] gave a Ki of under 10 nM.
Work on CCOc1ncccc1-c1ccc(N2CCN(C(=O)c3ccc(Cl)cc3N(C)C)C[C@H]2CC)c(C(=O)N[C@@H]2CCNC2)c1 [Compound 1-91, 2-[(2R)-4-[4-chloro-2-(dimethylamino)benzoyl]-2-ethylpiperazin-1-yl]-5-(2-ethoxypyridin-3-yl)-N-[(3R)-pyrrolidin-3-yl]benzamide] yielded a Ki of under 10 nM.
Molecule CCOc1ncccc1-c1ccc(N2CCN(C(=O)c3ccc(Cl)cc3C(F)(F)F)C[C@H]2CC)c(C(=O)N[C@H]2CCNC2)c1 [Compound 1-92, 2-[(2R)-4-[4-chloro-2-(trifluoromethyl)benzoyl]-2-ethylpiperazin-1-yl]-5-(2-ethoxypyridin-3-yl)-N-[(3S)-pyrrolidin-3-yl]benzamide] has a Ki of under 10 nM.
Molecule CCOc1ncccc1-c1ccc(N2CCN(C(=O)c3ccc(Cl)cc3C(F)(F)F)C[C@H]2CC)c(C(=O)NCCc2ncc[nH]2)c1 [Compound 1-93, 2-[(2R)-4-[4-chloro-2-(trifluoromethyl)benzoyl]-2-ethylpiperazin-1-yl]-5-(2-ethoxypyridin-3-yl)-N-[2-(1H-imidazol-2-yl)ethyl]benzamide] has a Ki of under 10 nM.
Work on CCOc1ncccc1-c1ccc(N2CCN(C(=O)c3ccc(C)cc3N3CC[C@H](NC)C3)C[C@H]2CC)c(C(=O)N[C@@H]2CCNC2)c1 [Compound 1-94, 5-(2-ethoxypyridin-3-yl)-2-[(2R)-2-ethyl-4-{4-methyl-2-[(3S)-3-(methylamino)pyrrolidin-1-yl]benzoyl}piperazin-1-yl]-N-[(3R)-pyrrolidin-3-yl]benzamide] yielded a Ki of under 10 nM.
With CCOc1ncccc1-c1ccc(N2CCN(C(=O)c3ccc(Cl)cc3C(F)(F)F)C[C@H]2CC)c(C(=O)NCCNC)c1F [Compound 1-95, 6-[(2R)-4-[4-chloro-2-(trifluoromethyl)benzoyl]-2-ethylpiperazin-1-yl]-3-(2-ethoxypyridin-3-yl)-2-fluoro-N-[2-(methylamino)ethyl]benzamide] the Ki was under 10 nM.
